SMILES strings stand for the structures.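 Exposure lasted 48 hours, with cells grown in 96-well plates and compounds tested at five concentrations. At the TGI there is no net growth.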 Where a SMILES comes first, the peptide text is derived from it. [ ]: non-standard residue; d: D form. The star is where a group is joined. ξ: configuration not given here. ξF = NC(Cc1ccccc1)C(=O)O; Cbz = O=C(OCc1ccccc1)* Some results are limits rather than exact numbers.

This is an account of results in PubChem BioAssay (NCI).

One test has as its system HCC-2998 colon. The test is described as follows: growth of human tumour cells (NCI), 48 h.
As to `COC(CN(C)C(=S)Nc1cccc2ccccc12)OC`, the TGI is > 10 µM.

For the compound `CCN1CCC(O)(c2ccc([N+](=O)[O-])cc2)C(C(=O)c2ccc([N+](=O)[O-])cc2)C1` (configuration not stated), the TGI amounted to 32.8 µM.

For the compound `CCOC(=O)CNC(=O)C(Cc1ccccc1)NC(=O)OCc1ccccc1` (configuration not stated) (Cbz-[ξF]-Gly-OEt), the TGI is > 100 µM.

With `Cc1[nH]n(-c2nc3c(c(=O)[nH]2)CCCC3)c(=O)c1CCO`, the TGI was > 100 µM.

Regarding `Cc1cc2nc3c(C#N)c(-c4ccccc4)/c(=C\Nc4ccc(F)cc4)c(=O)n3c2cc1C`, the TGI was > 100 µM.

A further test relates to HOP-62 NSCLC. Put plainly: growth of human tumour cells (NCI), 48 h.
For the compound `Clc1ccc(C=Nc2ccc(Oc3ccc(Cl)cc3)c(Cl)c2)cc1`, the TGI was 37.5 µM.

Turning to `CCN(/C=C1/C(=O)C(c2ccccc2)N(c2ccccc2)C1=O)CC` (configuration not stated), the TGI was > 10 µM.

In turn, `C[C@H]1CC[C@@]2(OC1)O[C@H]1C[C@H]3[C@@H]4CC[C@@H]5C[C@@H](OC6OC(CO)C(O)C(O)C6OC6OC(CO)C(O)C(O)C6O)CC[C@]5(C)[C@H]4CC[C@]3(C)[C@H]1[C@@H]2C` (some centres not stated) gave a TGI of 3.99 µM.

On to `CSc1nncc(-c2cc3c(c(SC)n2)CCCC3)n1`, for which the TGI is > 100 µM.

Take `Cn1c2ccccc2c(=O)c2c(O)cc3c(c21)C1OCC(C)(O)C1O3` (configuration not stated): the TGI was > 100 µM.

Regarding `Cc1cc(N(CCC#N)CCC#N)ccc1/C(N=Nc1ccccc1)=N\NC(=O)c1cc(Cl)ccc1O`, the TGI is > 100 µM.

Take `Cn1c(CNc2ccc(-c3n[nH]c(=S)n3C)cc2)n[nH]c1=S`: the TGI is > 100 µM.

As for `Cc1ccc(N=N/C(=N/NC(=O)c2ccccc2)c2ccc(N(CCC#N)CCC#N)cc2C)cc1`, the TGI was > 100 µM.

As to `CC(N)(CC(O)(C(F)(F)Cl)C(F)(F)Cl)C(=O)O` (configuration not stated), the TGI is > 10 µM.

Regarding `COC(CN(C)C(=S)Nc1cccc2ccccc12)OC`, the TGI is > 10 µM.

Take `CCN1CCC(O)(c2ccc([N+](=O)[O-])cc2)C(C(=O)c2ccc([N+](=O)[O-])cc2)C1` (configuration not stated): the TGI is > 100 µM.

For the compound `CCOC(=O)CNC(=O)C(Cc1ccccc1)NC(=O)OCc1ccccc1` (configuration not stated) (Cbz-[ξF]-Gly-OEt), the TGI was > 100 µM.

In the case of `CCOC(=O)C1(C/C=C\CBr)CCCC1=O` (configuration not stated), the TGI was 56.7 µM.

Turning to `Cc1[nH]n(-c2nc3c(c(=O)[nH]2)CCCC3)c(=O)c1CCO`, the TGI is > 100 µM.

For `Cc1cc2nc3c(C#N)c(-c4ccccc4)/c(=C\Nc4ccc(F)cc4)c(=O)n3c2cc1C`, the TGI is > 100 µM.

For a further test, the system named is HOP-92 NSCLC. The test is described as follows: growth of human tumour cells (NCI), 48 h.
For `Clc1ccc(C=Nc2ccc(Oc3ccc(Cl)cc3)c(Cl)c2)cc1`, the TGI is 41 µM.

In turn, `C[C@H]1CC[C@@]2(OC1)O[C@H]1C[C@H]3[C@@H]4CC[C@@H]5C[C@@H](OC6OC(CO)C(O)C(O)C6OC6OC(CO)C(O)C(O)C6O)CC[C@]5(C)[C@H]4CC[C@]3(C)[C@H]1[C@@H]2C` (some centres not stated) showed a TGI of 4.12 µM.

On to `Cn1c(CNc2ccc(-c3n[nH]c(=S)n3C)cc2)n[nH]c1=S`, for which the TGI was > 100 µM.

On to `CC(N)(CC(O)(C(F)(F)Cl)C(F)(F)Cl)C(=O)O` (configuration not stated), for which the TGI was > 10 µM.

On to `CCOC(=O)CNC(=O)C(Cc1ccccc1)NC(=O)OCc1ccccc1` (configuration not stated) (Cbz-[ξF]-Gly-OEt), for which the TGI was > 100 µM.

For another test, the system named is HT29 colon. The test is described as follows: growth of human tumour cells (NCI), 48 h.
The compound `Clc1ccc(C=Nc2ccc(Oc3ccc(Cl)cc3)c(Cl)c2)cc1` registered a TGI of 55 µM.

Consider `CCN(/C=C1/C(=O)C(c2ccccc2)N(c2ccccc2)C1=O)CC` (configuration not stated), for which the TGI was > 10 µM.

As for `C[C@H]1CC[C@@]2(OC1)O[C@H]1C[C@H]3[C@@H]4CC[C@@H]5C[C@@H](OC6OC(CO)C(O)C(O)C6OC6OC(CO)C(O)C(O)C6O)CC[C@]5(C)[C@H]4CC[C@]3(C)[C@H]1[C@@H]2C` (some centres not stated), the TGI amounted to 3.68 µM.

Consider `CSc1nncc(-c2cc3c(c(SC)n2)CCCC3)n1`, for which the TGI is > 100 µM.

`Cn1c2ccccc2c(=O)c2c(O)cc3c(c21)C1OCC(C)(O)C1O3` (configuration not stated): the TGI is > 100 µM.

`Cc1cc(N(CCC#N)CCC#N)ccc1/C(N=Nc1ccccc1)=N\NC(=O)c1cc(Cl)ccc1O` returned a TGI of 35.4 µM.

As for `Cn1c(CNc2ccc(-c3n[nH]c(=S)n3C)cc2)n[nH]c1=S`, the TGI was > 100 µM.

`Cc1ccc(N=N/C(=N/NC(=O)c2ccccc2)c2ccc(N(CCC#N)CCC#N)cc2C)cc1` registered a TGI of 53.7 µM.

As for `CC(N)(CC(O)(C(F)(F)Cl)C(F)(F)Cl)C(=O)O` (configuration not stated), the TGI was > 10 µM.

Regarding `COC(CN(C)C(=S)Nc1cccc2ccccc12)OC`, the TGI is > 10 µM.

With `CCN1CCC(O)(c2ccc([N+](=O)[O-])cc2)C(C(=O)c2ccc([N+](=O)[O-])cc2)C1` (configuration not stated), the TGI was > 100 µM.

For `CCOC(=O)CNC(=O)C(Cc1ccccc1)NC(=O)OCc1ccccc1` (configuration not stated) (Cbz-[ξF]-Gly-OEt), the TGI is > 100 µM.

For the compound `CCOC(=O)C1(C/C=C\CBr)CCCC1=O` (configuration not stated), the TGI was > 100 µM.

`Cc1[nH]n(-c2nc3c(c(=O)[nH]2)CCCC3)c(=O)c1CCO`: the TGI is > 100 µM.

A further test has as its system KM12 colon. The test is described as follows: growth of human tumour cells (NCI), 48 h.
With `Clc1ccc(C=Nc2ccc(Oc3ccc(Cl)cc3)c(Cl)c2)cc1`, the TGI was found to be 52.5 µM.

Turning to `CCN(/C=C1/C(=O)C(c2ccccc2)N(c2ccccc2)C1=O)CC` (configuration not stated), the TGI was > 10 µM.

For the compound `C[C@H]1CC[C@@]2(OC1)O[C@H]1C[C@H]3[C@@H]4CC[C@@H]5C[C@@H](OC6OC(CO)C(O)C(O)C6OC6OC(CO)C(O)C(O)C6O)CC[C@]5(C)[C@H]4CC[C@]3(C)[C@H]1[C@@H]2C` (some centres not stated), the TGI stood at 4.62 µM.

Turning to `CSc1nncc(-c2cc3c(c(SC)n2)CCCC3)n1`, the TGI was > 100 µM.

On to `Cc1cc(N(CCC#N)CCC#N)ccc1/C(N=Nc1ccccc1)=N\NC(=O)c1cc(Cl)ccc1O`, for which the TGI was > 100 µM.

For `Cn1c(CNc2ccc(-c3n[nH]c(=S)n3C)cc2)n[nH]c1=S`, the TGI is > 100 µM.

`Cc1ccc(N=N/C(=N/NC(=O)c2ccccc2)c2ccc(N(CCC#N)CCC#N)cc2C)cc1`: the TGI was > 100 µM.

In the case of `CC(N)(CC(O)(C(F)(F)Cl)C(F)(F)Cl)C(=O)O` (configuration not stated), the TGI was > 10 µM.

On to `COC(CN(C)C(=S)Nc1cccc2ccccc12)OC`, for which the TGI is > 10 µM.

Take `CCN1CCC(O)(c2ccc([N+](=O)[O-])cc2)C(C(=O)c2ccc([N+](=O)[O-])cc2)C1` (configuration not stated): the TGI stood at 32.1 µM.

In the case of `CCOC(=O)CNC(=O)C(Cc1ccccc1)NC(=O)OCc1ccccc1` (configuration not stated) (Cbz-[ξF]-Gly-OEt), the TGI was > 100 µM.

Take `CCOC(=O)C1(C/C=C\CBr)CCCC1=O` (configuration not stated): the TGI is > 100 µM.

For `Cc1[nH]n(-c2nc3c(c(=O)[nH]2)CCCC3)c(=O)c1CCO`, the TGI was > 100 µM.
